Assay results as given in ChEMBL document CHEMBL3885881, “DrugMatrix”.

Species on record: Rattus norvegicus
Experiment: DrugMatrix - Regimen: Daily Repeat
Format: toxicity, organism-based, Sprague-Dawley
Set-up: regimen Daily Repeat, gender Male, age 6-8 weeks
Conditions: in vivo, po, 20 mg/kg, route oral GAVAGE, dose level Low, […]; for ABSOLUTE BASOPHIL / ABSOLUTE EOSINOPHIL / ABSOLUTE LYMPHOCYTE / ABSOLUTE MONOCYTE / ABSOLUTE SEGMENTED NEUTROPHIL / BASOPHIL / EOSINOPHIL / ERYTHROCYTE COUNT / HEMATOCRIT / HEMOGLOBIN / LEUKOCYTE COUNT / LYMPHOCYTE / MEAN CORPUSCULAR HEMOGLOBIN / MEAN CORPUSCULAR HEMOGLOBIN CONCENTRATION / MEAN CORPUSCULAR VOLUME / MONOCYTE / NEUTROPHIL / NUCLEATED RED BLOOD CELLS / PLATELET COUNT: tissue Blood; for ALANINE AMINOTRANSFERASE / ALBUMIN / ALKALINE PHOSPHATASE / ASPARTATE AMINOTRANSFERASE / BLOOD UREA NITROGEN / CARBON DIOXIDE / CHLORIDE / CHOLESTEROL / CREATINE PHOSPHOKINASE / CREATININE / GLUCOSE / LACTATE DEHYDROGENASE / LIPASE / PHOSPHORUS / POTASSIUM / SODIUM / TOTAL BILIRUBIN / TOTAL PROTEIN / URIC ACID: tissue Plasma

For CCCSc1ccc2nc(NC(=O)OC)[nH]c2c1 [ALBENDAZOLE], the “ABSOLUTE BASOPHIL” value (72 h, time 3 day) was 0 CELLS/uL, the “ABSOLUTE EOSINOPHIL” value (72 h, time 3 day) was 0 CELLS/uL and the “ABSOLUTE LYMPHOCYTE” value (72 h, time 3 day) was 12808 CELLS/uL. The “ABSOLUTE MONOCYTE” value (72 h, time 3 day) was 184.67 CELLS/uL, the “ABSOLUTE SEGMENTED NEUTROPHIL” value (72 h, time 3 day) was 1574 CELLS/uL and the BASOPHIL (72 h, time 3 day) was 0%. For the same molecule, the EOSINOPHIL (72 h, time 3 day) was 0%, the “ERYTHROCYTE COUNT” value (72 h, time 3 day) was 5.37 x10E6/uL and the HEMATOCRIT (72 h, time 3 day) was 33.33%. The HEMOGLOBIN (72 h, time 3 day) was 13.47 G/DL, the “LEUKOCYTE COUNT” value (72 h, time 3 day) was 14.57 x10E3/uL and the LYMPHOCYTE (72 h, time 3 day) was 88.67%. The “MEAN CORPUSCULAR HEMOGLOBIN” value (72 h, time 3 day) was 25.17 pg, the “MEAN CORPUSCULAR HEMOGLOBIN CONCENTRATION” value (72 h, time 3 day) was 40.47 G/DL and the “MEAN CORPUSCULAR VOLUME” value (72 h, time 3 day) was 62.17 fL. For the same molecule, the MONOCYTE (72 h, time 3 day) was 1.33%, the NEUTROPHIL (72 h, time 3 day) was 10% and the “NUCLEATED RED BLOOD CELLS” value (72 h, time 3 day) was 0.33 /100WBC. The “PLATELET COUNT” value (72 h, time 3 day) was 1157.33 x10E3/uL, the “ALANINE AMINOTRANSFERASE” value (72 h, time 3 day) was 56.33 u/L and the ALBUMIN (72 h, time 3 day) was 3.6 G/DL. For the same molecule, the “ALKALINE PHOSPHATASE” value (72 h, time 3 day) was 430 u/L, the “ASPARTATE AMINOTRANSFERASE” value (72 h, time 3 day) was 87.33 u/L and the “BLOOD UREA NITROGEN” value (72 h, time 3 day) was 13.33 mg/dL. For the same molecule, the “CARBON DIOXIDE” value (72 h, time 3 day) was 24.67 mmol/L, the CHLORIDE (72 h, time 3 day) was 101 MEQ/L and the CHOLESTEROL (72 h, time 3 day) was 64 mg/dL. The “CREATINE PHOSPHOKINASE” value (72 h, time 3 day) was 390.67 u/L, the CREATININE (72 h, time 3 day) was 0.21 mg/dL and the GLUCOSE (72 h, time 3 day) was 220.67 mg/dL. For the same molecule, the “LACTATE DEHYDROGENASE” value (72 h, time 3 day) was 112.33 u/L, the LIPASE (72 h, time 3 day) was 10.67 u/L and the PHOSPHORUS (72 h, time 3 day) was 12.2 mg/dL. For the same molecule, the POTASSIUM (72 h, time 3 day) was 6.27 MEQ/L, the SODIUM (72 h, time 3 day) was 141.23 MEQ/L and the “TOTAL BILIRUBIN” value (72 h, time 3 day) was 0.2 mg/dL. For the same molecule, the “TOTAL PROTEIN” value (72 h, time 3 day) was 5.2 G/DL, the “URIC ACID” value (72 h, time 3 day) was 2.23 mg/dL and the “ABSOLUTE BASOPHIL” value (120 h, time 5 day) was 0 CELLS/uL. For the same molecule, the “ABSOLUTE EOSINOPHIL” value (120 h, time 5 day) was 69.33 CELLS/uL, the “ABSOLUTE LYMPHOCYTE” value (120 h, time 5 day) was 7738 CELLS/uL and the “ABSOLUTE MONOCYTE” value (120 h, time 5 day) was 149.67 CELLS/uL. For the same molecule, the “ABSOLUTE SEGMENTED NEUTROPHIL” value (120 h, time 5 day) was 776.33 CELLS/uL, the BASOPHIL (120 h, time 5 day) was 0% and the EOSINOPHIL (120 h, time 5 day) was 0.67%. The “ERYTHROCYTE COUNT” value (120 h, time 5 day) was 4.93 x10E6/uL, the HEMATOCRIT (120 h, time 5 day) was 31.3% and the HEMOGLOBIN (120 h, time 5 day) was 12.87 G/DL. For the same molecule, the “LEUKOCYTE COUNT” value (120 h, time 5 day) was 8.73 x10E3/uL, the LYMPHOCYTE (120 h, time 5 day) was 89.33% and the “MEAN CORPUSCULAR HEMOGLOBIN” value (120 h, time 5 day) was 26.07 pg. For the same molecule, the “MEAN CORPUSCULAR HEMOGLOBIN CONCENTRATION” value (120 h, time 5 day) was 41.1 G/DL, the “MEAN CORPUSCULAR VOLUME” value (120 h, time 5 day) was 63.4 fL and the MONOCYTE (120 h, time 5 day) was 1.67%. For the same molecule, the NEUTROPHIL (120 h, time 5 day) was 8.33%, the “NUCLEATED RED BLOOD CELLS” value (120 h, time 5 day) was 0 /100WBC and the “PLATELET COUNT” value (120 h, time 5 day) was 1525.33 x10E3/uL. The “ALANINE AMINOTRANSFERASE” value (120 h, time 5 day) was 53.67 u/L, the ALBUMIN (120 h, time 5 day) was 4.03 G/DL and the “ALKALINE PHOSPHATASE” value (120 h, time 5 day) was 375.33 u/L. The “ASPARTATE AMINOTRANSFERASE” value (120 h, time 5 day) was 79 u/L, the “BLOOD UREA NITROGEN” value (120 h, time 5 day) was 15 mg/dL and the “CARBON DIOXIDE” value (120 h, time 5 day) was 26 mmol/L. For the same molecule, the CHLORIDE (120 h, time 5 day) was 102.67 MEQ/L, the CHOLESTEROL (120 h, time 5 day) was 67 mg/dL and the “CREATINE PHOSPHOKINASE” value (120 h, time 5 day) was 225.67 u/L. The CREATININE (120 h, time 5 day) was 0.21 mg/dL, the GLUCOSE (120 h, time 5 day) was 161 mg/dL and the “LACTATE DEHYDROGENASE” value (120 h, time 5 day) was 141 u/L. For the same molecule, the LIPASE (120 h, time 5 day) was 11.67 u/L, the PHOSPHORUS (120 h, time 5 day) was 10.97 mg/dL and the POTASSIUM (120 h, time 5 day) was 5.64 MEQ/L. For the same molecule, the SODIUM (120 h, time 5 day) was 141.93 MEQ/L, the “TOTAL BILIRUBIN” value (120 h, time 5 day) was 0.1 mg/dL and the “TOTAL PROTEIN” value (120 h, time 5 day) was 5.5 G/DL. The “URIC ACID” value (120 h, time 5 day) was 1.37 mg/dL.
